Tested on: 855422-203-R-J1-PDC spheroids with HUVEC/MSC, viability
Experiment: Anticancer human tumor 855422-203-R-J1-PDC patient-derived bladder carcinoma cell line growth inhibition [PI3K]
Details: for IC50: curve of first compound; for viability, T/C: stronger effect = lower value
Procedure, shortened: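 Three cell types, namely tumor cells, endothelial cells and mesenchymal stem cells, formed each spheroid. Combinations with four PI3K inhibitors were screened at clinically achievable concentrations decreasing by half-log, and spheroid viability was recorded.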

[1] = second compound 0.0316 µM, first compound 0.0316 µM
[2] = second compound 0.0316 µM, first compound 0.1 µM
[3] = second compound 0.1 µM, first compound 0.0316 µM
[4] = second compound 0.1 µM, first compound 0.1 µM
[5] = second compound 0.316 µM, first compound 0.0316 µM
[6] = second compound 0.316 µM, first compound 0.1 µM
[7] = second compound 1 µM, first compound 0.0316 µM
[8] = second compound 1 µM, first compound 0.1 µM
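Note: agents incubated with spheroids for one week before read-out.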
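Throughout, for viability, T/C: 100% = DMSO vehicle-treated control wells.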

Cn1ncnc1[C@H]1c2n[nH]c(=O)c3cc(F)cc(c23)N[C@@H]1c1ccc(F)cc1 + Cc1nc(NC(=O)N2CCCC2C(N)=O)sc1-c1ccnc(C(C)(C)C(F)(F)F)c1 was tested, and the IC50 (second compound 0.0316 µM) was greater than 0.1 µM, the IC50 (second compound 0.1 µM) was greater than 0.1 µM and the IC50 (second compound 0.316 µM) was greater than 0.1 µM. The IC50 (second compound 1 µM) was greater than 0.1 µM, the IC50 (second compound 3.16 µM) was 0.000903 µM and the IC50 (second compound 10 µM) was less than 0.000316 µM. It also gave a viability, T/C (second compound 0.0316 µM, first compound 0.000316 µM) of 112%, a viability, T/C (second compound 0.0316 µM, first compound 0.001 µM) of 92.8% and a viability, T/C (second compound 0.0316 µM, first compound 0.00316 µM) of 112%. For the same molecule, the viability, T/C (second compound 0.0316 µM, first compound 0.01 µM) was 96.8%, the viability, T/C [1] was 105% and the viability, T/C [2] was 109%. For the same molecule, the viability, T/C (second compound 0.1 µM, first compound 0.000316 µM) was 105%, the viability, T/C (second compound 0.1 µM, first compound 0.001 µM) was 102% and the viability, T/C (second compound 0.1 µM, first compound 0.00316 µM) was 102%. For the same molecule, the viability, T/C (second compound 0.1 µM, first compound 0.01 µM) was 101%, the viability, T/C [3] was 101% and the viability, T/C [4] was 105%. The viability, T/C (second compound 0.316 µM, first compound 0.000316 µM) was 92.9%, the viability, T/C (second compound 0.316 µM, first compound 0.001 µM) was 93.8% and the viability, T/C (second compound 0.316 µM, first compound 0.00316 µM) was 95.8%. It also gave a viability, T/C (second compound 0.316 µM, first compound 0.01 µM) of 94.7%, a viability, T/C [5] of 98.6% and a viability, T/C [6] of 97.2%. It also gave a viability, T/C (second compound 1 µM, first compound 0.000316 µM) of 72.7%, a viability, T/C (second compound 1 µM, first compound 0.001 µM) of 74% and a viability, T/C (second compound 1 µM, first compound 0.00316 µM) of 79.2%. The viability, T/C (second compound 1 µM, first compound 0.01 µM) was 75.5%, the viability, T/C [7] was 79.4% and the viability, T/C [8] was 68.3%. The viability, T/C (second compound 3.16 µM, first compound 0.000316 µM) was 51.6%, the viability, T/C (second compound 3.16 µM, first compound 0.001 µM) was 49.8% and the viability, T/C (second compound 3.16 µM, first compound 0.00316 µM) was 47.1%. For the same molecule, the viability, T/C (second compound 3.16 µM, first compound 0.01 µM) was 47.7%, the viability, T/C (second compound 3.16 µM, first compound 0.0316 µM) was 49.1% and the viability, T/C (second compound 3.16 µM, first compound 0.1 µM) was 44.6%. For the same molecule, the viability, T/C (second compound 10 µM, first compound 0.000316 µM) was 25.6%, the viability, T/C (second compound 10 µM, first compound 0.001 µM) was 25.1% and the viability, T/C (second compound 10 µM, first compound 0.00316 µM) was 22.2%. For the same molecule, the viability, T/C (second compound 10 µM, first compound 0.01 µM) was 27.8%, the viability, T/C (second compound 10 µM, first compound 0.0316 µM) was 25.1% and the viability, T/C (second compound 10 µM, first compound 0.1 µM) was 21.3%.

With CC1(C)CCC(CN2CCN(c3ccc(C(=O)NS(=O)(=O)c4ccc(NCC5CCOCC5)c([N+](=O)[O-])c4)c(Oc4cnc5[nH]ccc5c4)c3)CC2)=C(c2ccc(Cl)cc2)C1 + CC(Nc1ccc2c(c1)OCCn1cc(N3C(=O)OCC3C(F)F)nc1-2)C(N)=O the IC50 (second compound 0.00316 µM) was 4.62 µM, the IC50 (second compound 0.01 µM) was 4.48 µM and the IC50 (second compound 0.0316 µM) was 4.75 µM. The IC50 (second compound 0.1 µM) was 4.65 µM, the IC50 (second compound 0.316 µM) was 1.93 µM and the IC50 (second compound 1 µM) was less than 0.0316 µM. For the same molecule, the viability, T/C (second compound 0.00316 µM, first compound 0.0316 µM) was 96.5%, the viability, T/C (second compound 0.00316 µM, first compound 0.1 µM) was 88.1% and the viability, T/C (second compound 0.00316 µM, first compound 0.316 µM) was 116%. It also gave a viability, T/C (second compound 0.00316 µM, first compound 1 µM) of 89.8%, a viability, T/C (second compound 0.00316 µM, first compound 3.16 µM) of 74% and a viability, T/C (second compound 0.00316 µM, first compound 10 µM) of 1.86%. For the same molecule, the viability, T/C (second compound 0.01 µM, first compound 0.0316 µM) was 85.4%, the viability, T/C (second compound 0.01 µM, first compound 0.1 µM) was 77.2% and the viability, T/C (second compound 0.01 µM, first compound 0.316 µM) was 95.1%. The viability, T/C (second compound 0.01 µM, first compound 1 µM) was 96.9%, the viability, T/C (second compound 0.01 µM, first compound 3.16 µM) was 71% and the viability, T/C (second compound 0.01 µM, first compound 10 µM) was 1.5%. The viability, T/C [1] was 86.2%, the viability, T/C [2] was 82% and the viability, T/C (second compound 0.0316 µM, first compound 0.316 µM) was 98.2%. For the same molecule, the viability, T/C (second compound 0.0316 µM, first compound 1 µM) was 86%, the viability, T/C (second compound 0.0316 µM, first compound 3.16 µM) was 75.8% and the viability, T/C (second compound 0.0316 µM, first compound 10 µM) was 2.64%. For the same molecule, the viability, T/C [3] was 68.3%, the viability, T/C [4] was 70.7% and the viability, T/C (second compound 0.1 µM, first compound 0.316 µM) was 84.6%. For the same molecule, the viability, T/C (second compound 0.1 µM, first compound 1 µM) was 72.1%, the viability, T/C (second compound 0.1 µM, first compound 3.16 µM) was 74.5% and the viability, T/C (second compound 0.1 µM, first compound 10 µM) was 2.65%. For the same molecule, the viability, T/C [5] was 55.8%, the viability, T/C [6] was 55.2% and the viability, T/C (second compound 0.316 µM, first compound 0.316 µM) was 53.7%. For the same molecule, the viability, T/C (second compound 0.316 µM, first compound 1 µM) was 54.4%, the viability, T/C (second compound 0.316 µM, first compound 3.16 µM) was 46.8% and the viability, T/C (second compound 0.316 µM, first compound 10 µM) was 1.04%. For the same molecule, the viability, T/C [7] was 36.3%, the viability, T/C [8] was 35.2% and the viability, T/C (second compound 1 µM, first compound 0.316 µM) was 36.8%. The viability, T/C (second compound 1 µM, first compound 1 µM) was 34.2%, the viability, T/C (second compound 1 µM, first compound 3.16 µM) was 35% and the viability, T/C (second compound 1 µM, first compound 10 µM) was 1.55%.
